What all share (set-up): scale not given: the % may be the effect or the level left
In test [1] the target is Misshapen-like kinase 1 (Homo sapiens) (UniProt Q8N4C8). Put plainly: Inhibition of human MINK1 assessed as enzyme activity at 1 uM using myelin basic protein as substrate preincubated for 20 mins followed by [gamma-33P]-ATP addition and measured after 120 mins by radiometric Hot-SpotSM Kinase assay relative to control.
Test [2] deals with T1, cGMP-dependent protein kinase 2 (Homo sapiens) (UniProt Q13237).
T1 sequence (whole entry): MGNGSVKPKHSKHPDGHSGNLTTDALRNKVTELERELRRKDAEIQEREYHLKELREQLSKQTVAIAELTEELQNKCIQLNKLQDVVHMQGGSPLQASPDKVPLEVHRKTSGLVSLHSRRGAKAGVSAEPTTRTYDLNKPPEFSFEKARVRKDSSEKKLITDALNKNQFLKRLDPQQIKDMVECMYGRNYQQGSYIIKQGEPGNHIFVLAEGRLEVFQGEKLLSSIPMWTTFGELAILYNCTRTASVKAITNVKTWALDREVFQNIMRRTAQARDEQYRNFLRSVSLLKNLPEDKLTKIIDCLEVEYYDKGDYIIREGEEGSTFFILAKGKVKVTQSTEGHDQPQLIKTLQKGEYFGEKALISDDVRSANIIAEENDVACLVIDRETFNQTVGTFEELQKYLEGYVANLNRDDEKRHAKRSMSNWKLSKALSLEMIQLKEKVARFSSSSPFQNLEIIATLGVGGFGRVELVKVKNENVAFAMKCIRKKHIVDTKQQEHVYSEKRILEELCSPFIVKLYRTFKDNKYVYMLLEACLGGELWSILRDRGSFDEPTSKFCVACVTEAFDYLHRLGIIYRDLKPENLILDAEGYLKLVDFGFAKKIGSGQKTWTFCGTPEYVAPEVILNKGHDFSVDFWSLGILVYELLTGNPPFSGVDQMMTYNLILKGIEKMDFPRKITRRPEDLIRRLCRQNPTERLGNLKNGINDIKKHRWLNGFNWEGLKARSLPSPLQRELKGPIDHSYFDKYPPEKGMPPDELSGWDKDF
The experiment in a line: Inhibition of human PKG2 assessed as enzyme activity at 1 uM using LRRASLG as substrate preincubated for 20 mins followed by [gamma-33P]-ATP addition and measured after 120 mins by radiometric Hot-SpotSM Kinase assay relative to control.

Test [3] addresses T2, Serine/threonine-protein kinase ULK3 (Homo sapiens) (UniProt Q6PHR2).
T2 sequence (whole entry): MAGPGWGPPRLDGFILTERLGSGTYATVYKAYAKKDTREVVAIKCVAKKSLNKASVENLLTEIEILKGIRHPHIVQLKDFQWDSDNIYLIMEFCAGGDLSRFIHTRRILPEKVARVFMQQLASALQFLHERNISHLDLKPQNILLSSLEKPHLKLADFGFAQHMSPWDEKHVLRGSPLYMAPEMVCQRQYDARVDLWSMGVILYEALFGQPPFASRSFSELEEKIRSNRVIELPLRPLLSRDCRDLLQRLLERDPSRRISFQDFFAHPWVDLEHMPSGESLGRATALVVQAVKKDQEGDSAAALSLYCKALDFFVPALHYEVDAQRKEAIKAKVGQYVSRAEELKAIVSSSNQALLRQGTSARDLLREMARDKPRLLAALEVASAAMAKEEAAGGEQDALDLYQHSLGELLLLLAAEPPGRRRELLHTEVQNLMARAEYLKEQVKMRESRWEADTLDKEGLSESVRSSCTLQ
Put plainly: Inhibition of human ULK3 assessed as enzyme activity at 1 uM using myelin basic protein as substrate preincubated for 20 mins followed by [gamma-33P]-ATP addition and measured after 120 mins by radiometric Hot-SpotSM Kinase assay relative to control.

Test [4] deals with Serine/threonine-protein kinase 33 (Homo sapiens) (UniProt Q9BYT3). The experiment in a line: Inhibition of human STK33 assessed as enzyme activity at 1 uM using myelin basic protein as substrate preincubated for 20 mins followed by [gamma-33P]-ATP addition and measured after 120 mins by radiometric Hot-SpotSM Kinase assay relative to control.
Test [5] has as its target T3, Mitogen-activated protein kinase kinase kinase 19 (Homo sapiens) (UniProt Q56UN5).
T3 sequence (whole entry): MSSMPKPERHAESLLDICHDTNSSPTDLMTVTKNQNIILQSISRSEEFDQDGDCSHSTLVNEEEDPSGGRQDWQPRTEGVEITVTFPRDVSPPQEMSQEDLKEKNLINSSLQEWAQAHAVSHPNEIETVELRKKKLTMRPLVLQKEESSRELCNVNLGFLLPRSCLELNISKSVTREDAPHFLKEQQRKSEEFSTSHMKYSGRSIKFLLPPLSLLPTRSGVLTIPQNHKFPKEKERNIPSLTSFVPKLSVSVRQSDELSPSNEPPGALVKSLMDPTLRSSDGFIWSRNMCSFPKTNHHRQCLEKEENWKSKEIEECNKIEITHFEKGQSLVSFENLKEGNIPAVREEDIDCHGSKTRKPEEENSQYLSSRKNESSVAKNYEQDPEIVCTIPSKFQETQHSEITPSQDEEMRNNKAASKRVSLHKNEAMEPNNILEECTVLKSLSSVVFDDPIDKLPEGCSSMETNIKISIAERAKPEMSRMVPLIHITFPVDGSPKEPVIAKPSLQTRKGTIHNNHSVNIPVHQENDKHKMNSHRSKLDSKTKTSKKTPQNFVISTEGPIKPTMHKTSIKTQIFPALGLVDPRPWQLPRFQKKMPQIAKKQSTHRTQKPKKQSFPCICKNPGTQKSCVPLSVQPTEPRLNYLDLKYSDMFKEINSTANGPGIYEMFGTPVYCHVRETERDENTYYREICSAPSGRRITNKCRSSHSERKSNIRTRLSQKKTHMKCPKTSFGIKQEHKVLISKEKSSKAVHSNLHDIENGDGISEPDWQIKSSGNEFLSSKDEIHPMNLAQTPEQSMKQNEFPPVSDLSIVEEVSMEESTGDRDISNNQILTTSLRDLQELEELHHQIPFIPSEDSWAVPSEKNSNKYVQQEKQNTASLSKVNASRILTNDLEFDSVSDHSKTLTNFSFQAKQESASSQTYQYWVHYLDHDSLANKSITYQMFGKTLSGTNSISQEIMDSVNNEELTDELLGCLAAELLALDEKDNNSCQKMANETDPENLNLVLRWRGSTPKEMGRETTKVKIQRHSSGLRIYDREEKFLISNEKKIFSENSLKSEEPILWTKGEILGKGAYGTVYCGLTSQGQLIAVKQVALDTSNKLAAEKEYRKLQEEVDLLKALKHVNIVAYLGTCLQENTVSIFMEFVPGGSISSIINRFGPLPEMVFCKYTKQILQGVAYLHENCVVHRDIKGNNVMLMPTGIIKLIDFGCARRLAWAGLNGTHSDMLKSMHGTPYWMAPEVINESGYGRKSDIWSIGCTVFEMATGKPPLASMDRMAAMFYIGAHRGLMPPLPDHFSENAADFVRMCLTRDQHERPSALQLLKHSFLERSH
Put plainly: Inhibition of human YSK4/MAP3K19 assessed as enzyme activity at 1 uM using myelin basic protein as substrate preincubated for 20 mins followed by [gamma-33P]-ATP addition and measured after 120 mins by radiometric Hot-SpotSM Kinase assay relative to control.

Structures are written as SMILES.

The values below come from ChEMBL document CHEMBL5715954, “Silencing c-Myc translation as a therapeutic strategy through targeting PI3Kδ and CK1ε in hematological malignancies” (Blood, 2017).

Sequence of Serine/threonine-protein kinase 33 (Homo sapiens) (Q9BYT3 whole entry, looked up): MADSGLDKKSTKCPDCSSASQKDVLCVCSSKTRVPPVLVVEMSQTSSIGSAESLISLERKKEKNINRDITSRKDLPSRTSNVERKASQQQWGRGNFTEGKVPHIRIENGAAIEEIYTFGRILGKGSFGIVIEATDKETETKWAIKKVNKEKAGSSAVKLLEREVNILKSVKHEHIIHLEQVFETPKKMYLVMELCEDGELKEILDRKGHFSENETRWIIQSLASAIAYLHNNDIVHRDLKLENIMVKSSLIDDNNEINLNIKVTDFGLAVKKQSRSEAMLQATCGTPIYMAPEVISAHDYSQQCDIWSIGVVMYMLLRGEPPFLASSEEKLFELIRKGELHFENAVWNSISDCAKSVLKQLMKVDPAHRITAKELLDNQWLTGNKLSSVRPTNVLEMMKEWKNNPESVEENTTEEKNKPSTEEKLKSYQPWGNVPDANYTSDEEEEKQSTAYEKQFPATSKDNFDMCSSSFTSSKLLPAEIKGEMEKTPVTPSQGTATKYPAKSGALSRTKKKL
Sequence of Misshapen-like kinase 1 (Homo sapiens) (Q8N4C8 whole entry, looked up): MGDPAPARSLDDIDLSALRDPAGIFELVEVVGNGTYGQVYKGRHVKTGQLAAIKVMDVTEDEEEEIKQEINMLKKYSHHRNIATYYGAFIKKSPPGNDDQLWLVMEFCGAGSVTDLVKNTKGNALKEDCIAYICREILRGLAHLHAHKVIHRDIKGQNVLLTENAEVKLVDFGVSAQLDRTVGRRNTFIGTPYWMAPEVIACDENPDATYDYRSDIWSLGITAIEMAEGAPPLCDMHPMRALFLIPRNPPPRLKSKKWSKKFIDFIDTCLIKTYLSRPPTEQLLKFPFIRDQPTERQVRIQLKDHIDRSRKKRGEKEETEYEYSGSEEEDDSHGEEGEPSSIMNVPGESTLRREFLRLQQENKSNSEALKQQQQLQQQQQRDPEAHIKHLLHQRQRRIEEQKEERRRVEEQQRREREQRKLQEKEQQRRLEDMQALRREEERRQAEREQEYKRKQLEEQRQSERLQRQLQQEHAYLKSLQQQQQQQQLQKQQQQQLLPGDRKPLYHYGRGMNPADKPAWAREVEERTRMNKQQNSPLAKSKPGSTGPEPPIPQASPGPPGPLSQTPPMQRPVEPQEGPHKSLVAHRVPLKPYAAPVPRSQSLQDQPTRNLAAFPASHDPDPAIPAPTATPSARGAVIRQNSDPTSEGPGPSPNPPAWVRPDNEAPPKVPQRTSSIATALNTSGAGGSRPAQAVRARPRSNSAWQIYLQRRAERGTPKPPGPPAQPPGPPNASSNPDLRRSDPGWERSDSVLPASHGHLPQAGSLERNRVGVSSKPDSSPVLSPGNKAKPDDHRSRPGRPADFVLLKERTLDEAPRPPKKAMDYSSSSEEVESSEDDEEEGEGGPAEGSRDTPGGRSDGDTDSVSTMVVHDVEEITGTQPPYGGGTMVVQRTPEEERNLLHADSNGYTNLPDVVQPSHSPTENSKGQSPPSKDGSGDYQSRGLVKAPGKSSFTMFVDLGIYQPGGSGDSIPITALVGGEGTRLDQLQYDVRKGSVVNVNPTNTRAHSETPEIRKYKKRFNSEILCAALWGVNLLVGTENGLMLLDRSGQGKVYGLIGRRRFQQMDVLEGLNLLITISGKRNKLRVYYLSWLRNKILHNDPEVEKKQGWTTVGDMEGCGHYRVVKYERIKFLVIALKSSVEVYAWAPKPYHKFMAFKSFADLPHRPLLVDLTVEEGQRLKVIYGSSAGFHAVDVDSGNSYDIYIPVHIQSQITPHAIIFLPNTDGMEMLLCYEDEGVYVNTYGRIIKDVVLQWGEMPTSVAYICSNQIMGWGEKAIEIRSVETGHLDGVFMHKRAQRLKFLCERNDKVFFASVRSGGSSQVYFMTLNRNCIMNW

In the case of `C[C@H](Nc1ncnc2nc[nH]c12)c1cc2cccc(Cl)c2c(=O)n1-c1ccccc1`, the Activity in test [1] amounted to 97%; in test [2], 99.8%; in test [3], 93.2%; in test [4], 101%; in test [5] it was 91.6%.

Regarding `CC[C@H](Nc1ncnc2[nH]cnc12)c1nc2cccc(F)c2c(=O)n1-c1ccccc1`, the Activity came to 95.2% in test [1]; 99.7% in test [2]; 89.3% in test [3]; 101% in test [4]; 90.5% in test [5].

Turning to `CC(C)Oc1ccc(-c2nn([C@@H](C)c3oc4ccc(F)cc4c(=O)c3-c3cccc(F)c3)c3ncnc(N)c23)cc1F` [UMBRALISIB], the Activity amounted to 96.4% in test [1]; 102% in test [2]; 93.8% in test [3]; 106% in test [4]; 92.4% in test [5].
